Data published in ChEMBL document CHEMBL5647694, “Novel orally bioavailable EZH1/2 dual inhibitors with greater antitumor efficacy than an EZH2 selective inhibitor” (Cancer Sci, 2017).

What was measured:
[1] = target: Protein-tyrosine kinase 6 (Homo sapiens) (UniProt Q13882); test: Inhibition of N-terminal GST-fused full length human BRK (2 to 451 residues) expressed in baculovirus-infected Sf21 cells using Blk/Lyntide as substrate at 1 uM in presence of ATP by Mobility shift assay
[2] = target: Tyrosine-protein kinase CSK (Homo sapiens) (UniProt P41240); test: Inhibition of N-terminal GST-fused full length human CSK (1 to 450 residues) expressed in baculovirus-infected Sf21 cells using Srctide as substrate at 1 uM in presence of ATP by Mobility shift assay
Chain of Tyrosine-protein kinase CSK (Homo sapiens) (P41240 2-450 limits assumed): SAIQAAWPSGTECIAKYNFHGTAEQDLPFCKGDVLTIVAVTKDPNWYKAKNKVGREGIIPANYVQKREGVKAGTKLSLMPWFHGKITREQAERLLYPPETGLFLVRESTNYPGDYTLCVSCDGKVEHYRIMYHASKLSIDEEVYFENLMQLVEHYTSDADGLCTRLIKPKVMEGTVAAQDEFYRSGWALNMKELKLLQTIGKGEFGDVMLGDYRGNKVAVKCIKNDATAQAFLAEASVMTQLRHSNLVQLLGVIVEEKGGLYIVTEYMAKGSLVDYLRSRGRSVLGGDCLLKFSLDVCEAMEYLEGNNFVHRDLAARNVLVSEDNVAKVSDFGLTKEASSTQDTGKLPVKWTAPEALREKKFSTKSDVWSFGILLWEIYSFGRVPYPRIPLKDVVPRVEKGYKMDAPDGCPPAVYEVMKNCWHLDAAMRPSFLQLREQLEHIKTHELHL

[3] = target: Ephrin type-A receptor 4 (Homo sapiens) (UniProt P54764); test: Inhibition of N-terminal GST-fused human EPHA4 cytoplasmic domain (586 to 986 residues) expressed in baculovirus-infected Sf21 cells using Blk/Lyntide as substrate at 1 uM in presence of ATP by Mobility shift assay
Chain of Ephrin type-A receptor 4 (Homo sapiens) (P54764 whole entry, the tested form may be a part): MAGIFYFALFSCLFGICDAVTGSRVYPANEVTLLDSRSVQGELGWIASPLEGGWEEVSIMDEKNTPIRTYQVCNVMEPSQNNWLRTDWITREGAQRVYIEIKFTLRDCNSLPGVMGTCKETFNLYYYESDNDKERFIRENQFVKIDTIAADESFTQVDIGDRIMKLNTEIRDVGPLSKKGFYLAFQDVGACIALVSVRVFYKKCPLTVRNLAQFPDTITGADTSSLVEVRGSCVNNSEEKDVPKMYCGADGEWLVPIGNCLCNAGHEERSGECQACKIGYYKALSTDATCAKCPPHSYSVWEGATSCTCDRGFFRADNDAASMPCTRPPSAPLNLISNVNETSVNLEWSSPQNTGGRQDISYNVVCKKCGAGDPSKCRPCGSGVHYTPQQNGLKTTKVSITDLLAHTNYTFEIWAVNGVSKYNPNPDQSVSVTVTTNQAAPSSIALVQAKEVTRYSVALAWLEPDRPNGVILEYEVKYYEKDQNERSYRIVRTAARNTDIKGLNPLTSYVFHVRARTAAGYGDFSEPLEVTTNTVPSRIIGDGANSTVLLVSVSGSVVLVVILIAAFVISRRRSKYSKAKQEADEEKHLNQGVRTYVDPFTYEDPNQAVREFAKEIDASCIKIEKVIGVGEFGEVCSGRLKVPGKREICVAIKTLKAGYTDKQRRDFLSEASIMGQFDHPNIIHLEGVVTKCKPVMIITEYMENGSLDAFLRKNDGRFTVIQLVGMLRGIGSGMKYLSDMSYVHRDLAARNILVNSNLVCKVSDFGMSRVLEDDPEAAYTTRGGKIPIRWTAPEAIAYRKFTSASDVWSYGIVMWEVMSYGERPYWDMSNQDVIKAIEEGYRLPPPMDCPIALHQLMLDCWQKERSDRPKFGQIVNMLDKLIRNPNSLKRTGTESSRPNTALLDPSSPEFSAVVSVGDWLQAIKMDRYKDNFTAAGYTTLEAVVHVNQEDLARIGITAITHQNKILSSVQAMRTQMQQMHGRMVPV

[4] = target: Hepatocyte growth factor receptor (Homo sapiens) (UniProt P08581); test: Inhibition of N-terminal GST-tagged human MET cytoplasmic domain (956 to 1390 residues ) expressed in baculovirus-infected Sf21 cells using Srctide as substrate at 1 uM in presence of ATP by Mobility shift assay
[5] = target: Platelet-derived growth factor receptor alpha (Homo sapiens) (UniProt P16234); test: Inhibition of N-terminal GST-tagged human PDGFR-alpha cytoplasmic domain (550 to 1089 residues) expressed in baculovirus-infected Sf21 cells using CSKtide as substrate at 1 uM in presence of ATP by Mobility shift assay
[6] = target: Tyrosine-protein kinase TXK (Homo sapiens) (UniProt P42681); test: Inhibition of N-terminal GST-tagged human TXK catalytic domain (260 to 527 residues) expressed in baculovirus-infected Sf21 cells using Srctide as substrate at 1 uM in presence of ATP by Mobility shift assay
[7] = target: Tyrosine-protein kinase receptor TYRO3 (Homo sapiens) (UniProt Q06418); test: Inhibition of N-terminal GST-tagged human TYRO3 cytoplasmic domain (453 to 890 residues) expressed in baculovirus-infected Sf21 cells using CSKtide as substrate at 1 uM in presence of ATP by Mobility shift assay
Chain of Tyrosine-protein kinase receptor TYRO3 (Homo sapiens) (Q06418 whole entry, the tested form may be a part): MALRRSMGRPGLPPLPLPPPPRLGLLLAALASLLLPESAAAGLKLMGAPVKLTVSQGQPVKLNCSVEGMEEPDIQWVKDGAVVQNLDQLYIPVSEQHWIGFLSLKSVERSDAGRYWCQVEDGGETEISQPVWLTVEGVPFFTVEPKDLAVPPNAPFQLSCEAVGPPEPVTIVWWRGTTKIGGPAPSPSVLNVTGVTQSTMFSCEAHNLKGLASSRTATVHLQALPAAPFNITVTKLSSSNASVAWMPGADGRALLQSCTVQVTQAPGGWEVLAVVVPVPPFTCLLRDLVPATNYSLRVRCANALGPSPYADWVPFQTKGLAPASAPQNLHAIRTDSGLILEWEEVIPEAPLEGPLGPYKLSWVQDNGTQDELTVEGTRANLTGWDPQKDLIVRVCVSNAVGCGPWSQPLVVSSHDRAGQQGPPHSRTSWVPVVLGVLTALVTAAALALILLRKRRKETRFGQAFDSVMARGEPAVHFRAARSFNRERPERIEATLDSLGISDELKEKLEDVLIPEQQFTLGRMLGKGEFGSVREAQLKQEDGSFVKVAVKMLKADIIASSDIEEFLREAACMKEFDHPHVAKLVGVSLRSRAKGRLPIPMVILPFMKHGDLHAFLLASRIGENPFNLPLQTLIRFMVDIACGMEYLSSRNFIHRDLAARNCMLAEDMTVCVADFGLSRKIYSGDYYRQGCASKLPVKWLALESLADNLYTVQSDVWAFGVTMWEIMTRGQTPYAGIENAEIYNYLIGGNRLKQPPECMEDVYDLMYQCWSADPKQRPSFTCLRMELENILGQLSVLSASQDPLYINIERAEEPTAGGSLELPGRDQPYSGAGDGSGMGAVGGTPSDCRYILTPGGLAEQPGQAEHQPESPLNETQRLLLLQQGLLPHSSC

[8] = target: Tyrosine-protein kinase Yes (Homo sapiens) (UniProt P07947); test: Inhibition of N-terminal GST-tagged full length human YES (1 to 543 residues) expressed in baculovirus-infected Sf21 cells using Srctide as substrate at 1 uM in presence of ATP by Mobility shift assay
[9] = target: Calcium/calmodulin-dependent protein kinase type IV (Homo sapiens) (UniProt Q16566); test: Inhibition of N-terminal GST-tagged full length human CAMK4 (1 to 473 residues) expressed in baculovirus-infected Sf21 cells using GS peptide as substrate at 1 uM in presence of ATP by Mobility shift assay
[10] = target: cGMP-dependent protein kinase 2 (Homo sapiens) (UniProt Q13237); test: Inhibition of N-terminal GST-fused full length human CGK2 (1 to 762 residues) expressed in baculovirus expression system using Kemptide as substrate at 1 uM in presence of ATP by Mobility shift assay
[11] = target: Death-associated protein kinase 1 (Homo sapiens) (UniProt P53355); test: Inhibition of N-terminal GST-fused human DAPK1 catalytic domain (1 to 289 residues) expressed in baculovirus expression system using DAPK1tide as substrate at 1 uM in presence of ATP by Mobility shift assay
[12] = target: Serine/threonine-protein kinase haspin (Homo sapiens) (UniProt Q8TF76); test: Inhibition of N-terminal GST-fused full length human Haspin (1 to 798 residues) expressed in baculovirus expression system using Histone H3 peptide as substrate at 1 uM in presence of ATP by Mobility shift assay
[13] = target: Inhibitor of nuclear factor kappa-B kinase subunit alpha (Homo sapiens) (UniProt O15111); test: Inhibition of N-terminal GST-fused full length human IKK-alpha (1 to 745 residues) expressed in baculovirus expression system using IkBalpha peptide as substrate at 1 uM in presence of ATP by IMAP assay
[14] = target: Serine/threonine-protein kinase LATS2 (Homo sapiens) (UniProt Q9NRM7); test: Inhibition of N-terminal GST-fused human LATS2 catalytic domain (553 to 1088 residues) expressed in baculovirus expression system using SGKtide as substrate at 1 uM in presence of ATP by Mobility shift assay
[15] = target: Serine/threonine-protein kinase MRCK beta (Homo sapiens) (UniProt Q9Y5S2); test: Inhibition of N-terminal GST-fused truncated human MRCKbeta (1 to 473 residues) expressed in baculovirus expression system using DAPK1tide as substrate at 1 uM in presence of ATP by Mobility shift assay
Chain of Serine/threonine-protein kinase MRCK beta (Homo sapiens) (Q9Y5S2 whole entry, the tested form may be a part): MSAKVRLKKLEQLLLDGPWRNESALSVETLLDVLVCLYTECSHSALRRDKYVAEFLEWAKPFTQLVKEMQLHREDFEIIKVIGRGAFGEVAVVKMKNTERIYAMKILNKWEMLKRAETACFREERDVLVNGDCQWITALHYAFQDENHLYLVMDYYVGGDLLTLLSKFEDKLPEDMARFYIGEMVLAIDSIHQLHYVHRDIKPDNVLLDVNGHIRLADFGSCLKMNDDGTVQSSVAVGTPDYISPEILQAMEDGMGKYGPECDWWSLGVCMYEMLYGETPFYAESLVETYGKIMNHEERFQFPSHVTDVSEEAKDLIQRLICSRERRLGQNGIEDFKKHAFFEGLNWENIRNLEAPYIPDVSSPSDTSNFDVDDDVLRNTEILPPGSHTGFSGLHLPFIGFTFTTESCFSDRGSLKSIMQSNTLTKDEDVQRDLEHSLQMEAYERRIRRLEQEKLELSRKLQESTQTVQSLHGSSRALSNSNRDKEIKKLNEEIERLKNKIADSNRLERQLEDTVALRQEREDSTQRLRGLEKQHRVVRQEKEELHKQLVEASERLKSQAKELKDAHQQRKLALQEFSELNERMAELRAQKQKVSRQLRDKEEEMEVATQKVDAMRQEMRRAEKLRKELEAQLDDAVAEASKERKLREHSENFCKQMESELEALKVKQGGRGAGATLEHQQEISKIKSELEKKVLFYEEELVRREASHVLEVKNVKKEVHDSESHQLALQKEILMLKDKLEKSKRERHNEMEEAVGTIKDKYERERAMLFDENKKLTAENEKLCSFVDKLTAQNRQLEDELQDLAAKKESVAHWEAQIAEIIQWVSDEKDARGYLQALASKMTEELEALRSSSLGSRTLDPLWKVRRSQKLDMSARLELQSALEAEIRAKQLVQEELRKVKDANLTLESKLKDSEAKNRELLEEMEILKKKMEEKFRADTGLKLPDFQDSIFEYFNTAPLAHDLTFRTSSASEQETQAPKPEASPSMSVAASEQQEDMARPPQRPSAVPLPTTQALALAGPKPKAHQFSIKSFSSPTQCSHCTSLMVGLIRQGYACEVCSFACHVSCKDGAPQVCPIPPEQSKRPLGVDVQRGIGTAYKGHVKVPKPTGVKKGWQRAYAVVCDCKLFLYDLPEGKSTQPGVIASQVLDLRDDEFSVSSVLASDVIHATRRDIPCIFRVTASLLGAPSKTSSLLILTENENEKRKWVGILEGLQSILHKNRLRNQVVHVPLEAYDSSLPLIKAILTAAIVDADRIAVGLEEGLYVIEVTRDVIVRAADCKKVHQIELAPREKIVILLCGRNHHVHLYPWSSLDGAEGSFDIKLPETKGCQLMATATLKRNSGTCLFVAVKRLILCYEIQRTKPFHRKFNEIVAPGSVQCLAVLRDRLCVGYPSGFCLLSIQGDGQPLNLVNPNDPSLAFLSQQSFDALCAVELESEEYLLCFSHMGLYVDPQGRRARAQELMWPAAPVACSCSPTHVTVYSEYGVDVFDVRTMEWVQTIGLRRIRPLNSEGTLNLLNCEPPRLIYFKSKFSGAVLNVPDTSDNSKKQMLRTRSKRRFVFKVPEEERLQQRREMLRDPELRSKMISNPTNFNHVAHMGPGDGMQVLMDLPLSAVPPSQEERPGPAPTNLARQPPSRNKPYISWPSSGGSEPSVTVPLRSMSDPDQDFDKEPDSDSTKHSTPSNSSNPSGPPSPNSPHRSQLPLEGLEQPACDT

[16] = target: SRSF protein kinase 3 (Homo sapiens) (UniProt Q9UPE1); test: Inhibition of N-terminal GST-fused full length human MSSK1 (1 to 567 residues) expressed in baculovirus expression system using DYRKtide-F as substrate at 1 uM in presence of ATP by Mobility shift assay
[17] = target: Serine/threonine-protein kinase 38-like (Homo sapiens) (UniProt Q9Y2H1); test: Inhibition of N-terminal GST-fused full length human NDR2 (1 to 464 residues) expressed in baculovirus expression system using SGKtide as substrate at 1 uM in presence of ATP by Mobility shift assay
Chain of Serine/threonine-protein kinase 38-like (Homo sapiens) (Q9Y2H1 2-464 limits assumed): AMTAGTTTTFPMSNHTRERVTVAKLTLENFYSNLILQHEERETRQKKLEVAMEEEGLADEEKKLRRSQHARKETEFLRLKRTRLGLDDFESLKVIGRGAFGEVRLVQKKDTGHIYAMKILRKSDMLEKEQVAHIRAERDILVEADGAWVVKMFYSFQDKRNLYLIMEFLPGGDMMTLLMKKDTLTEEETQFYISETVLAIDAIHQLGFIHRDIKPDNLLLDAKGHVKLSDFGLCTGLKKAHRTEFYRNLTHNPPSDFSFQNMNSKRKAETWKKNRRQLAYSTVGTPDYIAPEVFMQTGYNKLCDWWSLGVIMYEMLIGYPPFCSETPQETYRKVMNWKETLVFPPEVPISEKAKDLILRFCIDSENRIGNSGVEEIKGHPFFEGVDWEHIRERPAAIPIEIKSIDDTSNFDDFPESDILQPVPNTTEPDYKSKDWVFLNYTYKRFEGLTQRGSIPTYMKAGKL

[18] = target: [Pyruvate dehydrogenase (acetyl-transferring)] kinase isozyme 2, mitochondrial (Homo sapiens) (UniProt Q15119); test: Inhibition of N-terminal GST-fused full length human PDHK2 (1 to 407 residues) expressed in baculovirus expression system using PDHKtide as substrate at 1 uM in presence of ATP by Mobility shift assay
[19] = target: Phosphorylase b kinase gamma catalytic chain, liver/testis isoform (Homo sapiens) (UniProt P15735); test: Inhibition of N-terminal GST-fused full length human PHKG2 (1 to 406 residues) expressed in baculovirus expression system using GS peptide as substrate at 1 uM in presence of ATP by Mobility shift assay
Chain of Phosphorylase b kinase gamma catalytic chain, liver/testis isoform (Homo sapiens) (P15735 whole entry, the tested form may be a part, canonical isoform): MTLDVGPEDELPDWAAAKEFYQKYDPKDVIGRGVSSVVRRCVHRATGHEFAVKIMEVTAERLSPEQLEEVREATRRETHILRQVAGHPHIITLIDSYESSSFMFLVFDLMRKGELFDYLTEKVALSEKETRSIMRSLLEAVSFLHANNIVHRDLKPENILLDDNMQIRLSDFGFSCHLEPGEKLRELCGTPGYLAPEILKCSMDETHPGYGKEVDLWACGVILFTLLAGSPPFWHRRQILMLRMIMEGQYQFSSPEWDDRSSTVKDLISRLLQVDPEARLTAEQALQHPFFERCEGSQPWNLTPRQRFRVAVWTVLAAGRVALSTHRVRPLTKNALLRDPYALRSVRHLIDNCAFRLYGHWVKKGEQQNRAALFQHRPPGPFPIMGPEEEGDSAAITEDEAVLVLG

[20] = target: Protein kinase C gamma type (Homo sapiens) (UniProt P05129); test: Inhibition of N-terminal GST-fused human full length PKC-gamma(1 to 697 residues ) expressed in baculovirus expression system using PKC peptide as substrate at 1 uM in presence of ATP by Mobility shift assay
[21] = target: Protein kinase C zeta type (Homo sapiens) (UniProt Q05513); test: Inhibition of N-terminal GST-fused human full length PKC-zeta (1 to 592 residues ) expressed in baculovirus expression system using PKC peptide as substrate at 1 uM in presence of ATP by Mobility shift assay
[22] = target: Serine/threonine-protein kinase PLK3 (Homo sapiens) (UniProt Q9H4B4); test: Inhibition of N-terminal GST-fused human PLK3 catalytic domain (58 to 340 residues) expressed in baculovirus expression system using CDC25ctide as substrate at 1 uM in presence of ATP by Mobility shift assay
[23] = target: Rho-associated protein kinase 2 (Homo sapiens) (UniProt O75116); test: Inhibition of N-terminal GST-fused human ROCK2 catalytic domain (1 to 553 residues) expressed in baculovirus expression system using LIMKtide as substrate at 1 uM in presence of ATP by Mobility shift assay

Row | SMILES | inhibition [1] [%] | inhibition [2] [%] | inhibition [3] [%] | inhibition [4] [%] | inhibition [5] [%] | inhibition [6] [%] | inhibition [7] [%] | inhibition [8] [%] | inhibition [9] [%] | inhibition [10] [%] | inhibition [11] [%] | inhibition [12] [%] | inhibition [13] [%] | inhibition [14] [%] | inhibition [15] [%] | inhibition [16] [%] | inhibition [17] [%] | inhibition [18] [%] | inhibition [19] [%] | inhibition [20] [%] | further results
1 | Cc1cc(C)c(CNC(=O)c2cc(Cl)c3c(c2C)O[C@@](C)([C@H]2CC[C@H](N(C)C)CC2)O3)c(=O)[nH]1 [VALEMETOSTAT] | -3 | -5.9 | -3 | -5 | -4.4 | -7 | -2.6 | -1.8 | -7.2 | -4.3 | 14.9 | 12.2 | 11.5 | 0.6 | -1.3 | -5.4 | -1.3 | 1.4 | -2 | 1 | inhibition [21]: 9.3%; inhibition [22]: -7.8%; inhibition [23]: 3.3%
2 | Cc1cc(C)c(CNC(=O)c2cc(Br)c3c(c2C)O[C@@](C)([C@H]2CC[C@H](N(C)C)CC2)O3)c(=O)[nH]1 | -3.9 | -0.5 | -4.3 | -2.1 | -6.1 | 1.3 | 0.9 | -1.6 | -2.9 | -2.3 | 3.4 | 6.5 | -0.6 | -0.6 | -1 | -6.3 | -2.4 | 1.6 | 0.7 | 0 | inhibition [21]: 3.2%; inhibition [22]: -1.3%; inhibition [23]: 2.2%
